Results: patent US9809598B2 (Merck Patent GmbH, priority 2014, dated 2017)
Structures can show the parent of a compound that is named as a salt.

Experiments:
TNKS1 = molecular target: T1, TNKS1 (Homo sapiens, UniProt O95271); experiment: TNKS1 activity ELISA (autoparsylation assay); type: biochemical; conditions: GST-tagged Tnks-1 (1023-1327 aa)
T1 construct: GST-tagged Tnks-1 (1023-1327 aa, prepared in-house); made in house
Summary of the method: (§1)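 Autoparsylation ELISA: biotinylated NAD serves as co-substrate for plate-bound GST-TNKS1/TNKS2, incubated with test compounds. Readout is HRP luminescence after streptavidin-HRP binding, referenced to the no-inhibitor reaction, from which IC50 values are derived.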

TNKS2 = molecular target: T2, TNKS2 (Homo sapiens, UniProt Q9H2K2); experiment: TNKS2 activity ELISA (autoparsylation assay); type: biochemical; conditions: GST-tagged Tnks-2 (873-1166 aa); read-out: IC50 [M] TNKS2 ELISA
T2 construct: GST-tagged Tnks-2 (873-1166 aa, prepared in-house); made in house
Summary of the method: as §1

Tankyrases = conditions: read-out: EC50 [M] TNKS cellular assay; DLD1 cells, 24 hours, Axin2 increase
PARP-1 = molecular target: T3, PARP-1 (Homo sapiens, UniProt P09874); experiment: PARP-1 autoparsylation assay (HTRF); type: biochemical; conditions: His-tagged Parp-1, autoparsylation HTRF
T3 construct: purchased Enzo Life Sciences GmbH, Lörrach, Germany
Summary of the method: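 HTRF emission ratio reports biotin-ADP-ribose self-transfer onto His-tagged PARP-1, with biotinylated NAD/NAD as co-substrate, sensed via cryptate anti-His and Xlent-streptavidin.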

T3 sequence (P09874 whole entry): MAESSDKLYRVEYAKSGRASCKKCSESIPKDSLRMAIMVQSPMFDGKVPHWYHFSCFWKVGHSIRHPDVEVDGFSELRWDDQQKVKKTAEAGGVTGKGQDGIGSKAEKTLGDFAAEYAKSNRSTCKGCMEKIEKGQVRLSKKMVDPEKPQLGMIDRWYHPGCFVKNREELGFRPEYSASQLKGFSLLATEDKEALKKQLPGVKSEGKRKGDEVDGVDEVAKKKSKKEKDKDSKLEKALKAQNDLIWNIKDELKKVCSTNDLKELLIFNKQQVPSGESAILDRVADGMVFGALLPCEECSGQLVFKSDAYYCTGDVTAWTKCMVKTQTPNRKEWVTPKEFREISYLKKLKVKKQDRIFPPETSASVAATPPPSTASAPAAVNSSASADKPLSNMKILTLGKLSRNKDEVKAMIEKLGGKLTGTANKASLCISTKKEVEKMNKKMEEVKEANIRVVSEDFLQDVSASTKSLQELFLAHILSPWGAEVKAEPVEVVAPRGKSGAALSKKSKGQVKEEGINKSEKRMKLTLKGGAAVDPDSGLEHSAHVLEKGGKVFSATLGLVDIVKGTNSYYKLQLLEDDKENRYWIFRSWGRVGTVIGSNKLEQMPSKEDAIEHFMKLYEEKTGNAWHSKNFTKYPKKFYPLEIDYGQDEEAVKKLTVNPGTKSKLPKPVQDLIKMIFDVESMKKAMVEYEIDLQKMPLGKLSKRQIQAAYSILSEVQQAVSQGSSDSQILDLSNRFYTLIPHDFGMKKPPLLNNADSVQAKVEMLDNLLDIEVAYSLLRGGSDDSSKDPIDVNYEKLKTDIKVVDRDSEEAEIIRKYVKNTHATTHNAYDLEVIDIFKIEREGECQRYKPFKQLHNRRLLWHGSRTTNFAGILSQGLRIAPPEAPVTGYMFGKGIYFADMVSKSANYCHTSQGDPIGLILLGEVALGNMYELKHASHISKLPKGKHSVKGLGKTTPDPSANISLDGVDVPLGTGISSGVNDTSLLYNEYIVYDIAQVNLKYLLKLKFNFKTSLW
T2 sequence (Q9H2K2 873-1166): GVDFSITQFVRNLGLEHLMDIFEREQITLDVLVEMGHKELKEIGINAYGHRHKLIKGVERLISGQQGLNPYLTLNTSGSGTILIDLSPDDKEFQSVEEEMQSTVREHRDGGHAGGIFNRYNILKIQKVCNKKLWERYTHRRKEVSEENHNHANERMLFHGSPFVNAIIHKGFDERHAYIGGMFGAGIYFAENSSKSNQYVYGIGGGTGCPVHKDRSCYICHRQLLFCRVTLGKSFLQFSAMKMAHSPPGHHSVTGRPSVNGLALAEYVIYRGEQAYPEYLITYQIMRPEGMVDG
T1 sequence (O95271 1023-1327): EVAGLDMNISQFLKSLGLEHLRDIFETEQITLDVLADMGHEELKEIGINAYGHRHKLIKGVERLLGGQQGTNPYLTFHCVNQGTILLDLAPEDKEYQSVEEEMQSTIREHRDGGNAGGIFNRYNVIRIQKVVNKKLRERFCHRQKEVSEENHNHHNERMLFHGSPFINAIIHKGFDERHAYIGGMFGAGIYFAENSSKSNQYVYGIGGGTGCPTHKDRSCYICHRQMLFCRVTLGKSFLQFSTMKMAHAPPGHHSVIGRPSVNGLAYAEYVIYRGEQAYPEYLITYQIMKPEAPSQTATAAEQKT

Compound	IC50 (TNKS1) [nM]	IC50 (TNKS2) [M]	EC50 (Tankyrases) [M]	IC50 (PARP-1) [nM]
Cc1cc2c(=O)[nH]c(CCCC(=O)N3CCC(C(=O)c4cnn(C(C)C)c4)CC3)cn2n1 [Compound C217, 6-{4-[4-(1-Isopropyl-1H-pyrazole-4-carbonyl)-piperidin-1-yl]-4-oxo-butyl}-2-methyl-5H-pyrazolo[1,5-a]pyrazin-4-one]	2	2.7e-09	3e-08	6600
CC(C)n1cc(C(=O)C2CCN(C(=O)CCCc3nn4cccc4c(=O)[nH]3)CC2)cn1 [Compound C219, 2-{4-[4-(1-Isopropyl-1H-pyrazole-4-carbonyl)-piperidin-1-yl]-4-oxo-butyl}-3H-pyrrolo[2,1-f][1,2,4]triazin-4-one]	2	1.2e-09	2.4e-08	25000
Cc1cc2c(=O)[nH]c(CCCC(=O)N3CCC(C(=O)c4cnn(C(C)C)c4)CC3)nn2c1 [Compound C220, 2-{4-[4-(1-Isopropyl-1H-pyrazole-4-carbonyl)-piperidin-1-yl]-4-oxo-butyl}-6-methyl-3H-pyrrolo[2,1-f][1,2,4]triazin-4-one]	4.2	3.7e-09	4e-08	6200
CC(C)n1cc(C(=O)C2CCN(C(=O)CCCc3nn4cc(F)cc4c(=O)[nH]3)CC2)cn1 [Compound C221, 6-Fluoro-2-{4-[4-(1-isopropyl-1H-pyrazole-4-carbonyl)-piperidin-1-yl]-4-oxo-butyl}-3H-pyrrolo[2,1-f][1,2,4]triazin-4-one]	2.1	2e-09	2.7e-08	1900
CCn1cc(C(=O)C2CCN(C(=O)CCCc3nn4c(C)ccc4c(=O)[nH]3)CC2)cn1 [Compound C222, 2-{4-[4-(1-Ethyl-1H-pyrazole-4-carbonyl)-piperidin-1-yl]-4-oxo-butyl}-7-methyl-3H-pyrrolo[2,1-f][1,2,4]triazin-4-one]	0.24	2.9e-10	2.6e-09	1200
Cc1ccc2c(=O)[nH]c(CCCC(=O)N3CCC(C(=O)c4cnn(C(C)C)c4)CC3)nn12 [Compound C223, 2-{4-[4-(1-Isopropyl-1H-pyrazole-4-carbonyl)-piperidin-1-yl]-4-oxo-butyl}-7-methyl-3H-pyrrolo[2,1-f][1,2,4]triazin-4-one]	0.6	5.1e-10	3.3e-09	840
CCn1cc(C(=O)C2CCN(C(=O)CCCc3nc4c(C)csc4c(=O)[nH]3)CC2)cn1 [Compound C224, 2-{4-[4-(1-Ethyl-1H-pyrazole-4-carbonyl)-piperidin-1-yl]-4-oxo-butyl}-7-methyl-3H-thieno[3,2-d]pyrimidin-4-one trifluoroacetate]	0.87	7.1e-10	1.8e-08	3100
Cc1csc2c(=O)[nH]c(CCCC(=O)N3CCC(C(=O)c4cnn(C(C)C)c4)CC3)nc12 [Compound C225, 2-{4-[4-(1-Isopropyl-1H-pyrazole-4-carbonyl)-piperidin-1-yl]-4-oxo-butyl}-7-methyl-3H-thieno[3,2-d]pyrimidin-4-one]	0.73	4e-10	1.4e-08	700
Cc1scc2c(=O)[nH]c(CCCC(=O)N3CCC(C(=O)c4cnn(C(C)C)c4)CC3)nc12 [Compound C226, 2-{4-[4-(1-Isopropyl-1H-pyrazole-4-carbonyl)-piperidin-1-yl]-4-oxo-butyl}-7-methyl-3H-thieno[3,4-d]pyrimidin-4-one]	1.6	9.5e-10	2.5e-08	1800
COc1ccc(C(=O)C2CCN(C(=O)CCCc3nc4c(c(=O)[nH]3)CCCC4)CC2)cc1 [Compound C227, 2-{4-[4-(4-Methoxy-benzoyl)-piperidin-1-yl]-4-oxo-butyl}-5,6,7,8-tetrahydro-3H-quinazolin-4-one]	0.66	4.2e-10	3.7e-09	410
CC(C)n1cc(C(=O)C2CCN(C(=O)CCCc3nc4c(c(=O)[nH]3)COCC4)CC2)cn1 [Compound C229, 2-{4-[4-(1-Isopropyl-1H-pyrazole-4-carbonyl)-piperidin-1-yl]-4-oxo-butyl}-3,5,7,8-tetrahydro-pyrano[4,3-d]pyrimidin-4-one]	23	2.3e-09	1.6e-06	24000
Cn1cc(C(=O)C2CCN(C(=O)CCCc3nc4c(c(=O)[nH]3)CCCC4)CC2)cn1 [Compound C230, 2-{4-[4-(1-Methyl-1H-pyrazole-4-carbonyl)-piperidin-1-yl]-4-oxo-butyl}-5,6,7,8-tetrahydro-3H-quinazolin-4-one]	5.1	2.1e-09	4.7e-08	1800
COc1ccc(C(=O)C2CCN(C(=O)CCCc3cn4nc(C)cc4c(=O)[nH]3)CC2)cn1 [Compound C231, 6-{4-[4-(6-Methoxy-pyridine-3-carbonyl)-piperidin-1-yl]-4-oxo-butyl}-2-methyl-5H-pyrazolo[1,5-a]pyrazin-4-one]	0.36	5.4e-10	5.4e-09	4500
N#Cc1cc(C2CCN(C(=O)CCCc3nc4c(c(=O)[nH]3)CCCC4)CC2)cnc1N [Compound C232, 6-Amino-1′-[4-(4-oxo-3,4,5,6,7,8-hexahydro-quinazolin-2-yl)-butyryl]-1′,2′,3′,4′,5′,6′-hexahydro-[3,4′]bipyridinyl-5-carbonitrile]	20	5.7e-09	5.6e-08	2700
CCn1cc(C(=O)C2CCN(C(=O)CCCc3nn4cc(C)cc4c(=O)[nH]3)CC2)cn1 [Compound C233, 2-{4-[4-(1-Ethyl-1H-pyrazole-4-carbonyl)-piperidin-1-yl]-4-oxo-butyl}-6-methyl-3H-pyrrolo[2,1-f][1,2,4]triazin-4-one]	1.2	2.3e-09	5.4e-08	5300
Cc1ccc(C(=O)C2CCN(C(=O)CCCc3nc4c(cnn4C)c(=O)[nH]3)CC2)cc1 [Compound C234, 1-Methyl-6-{4-[4-(4-methyl-benzoyl)-piperidin-1-yl]-4-oxo-butyl}-1,5-dihydro-pyrazolo[3,4-d]pyrimidin-4-one]	0.66	3e-10	1.6e-08	18000
Cc1ccc(C(=O)C2CCN(C(=O)CCCc3nn4cccc4c(=O)[nH]3)CC2)cc1 [Compound C235, 2-{4-[4-(4-Methyl-benzoyl)-piperidin-1-yl]-4-oxo-butyl}-3H-pyrrolo[2,1-f][1,2,4]triazin-4-one]	0.57	3.9e-10	3.9e-09	3000
Cn1ncc2c(=O)[nH]c(CCCC(=O)N3CCC(C(=O)c4ccc(Cl)cc4)CC3)nc21 [Compound C236, 6-{4-[4-(4-Chloro-benzoyl)-piperidin-1-yl]-4-oxo-butyl}-1-methyl-1,5-dihydro-pyrazolo[3,4-d]pyrimidin-4-one]	0.48	2.4e-10	2.1e-08	10000
O=C(c1ccc(Cl)cc1)C1CCN(C(=O)CCCc2nn3cccc3c(=O)[nH]2)CC1 [Compound C237, 2-{4-[4-(4-Chloro-benzoyl)-piperidin-1-yl]-4-oxo-butyl}-3H-pyrrolo[2,1-f][1,2,4]triazin-4-one]	0.66	3e-10	1e-08	10000
